Drawing on PubChem BioAssay (NCI), this text covers TGI for twelve molecules.

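48-hour exposure; five concentrations; linearly interpolated endpoints. Definition used: TGI = concentration required for complete inhibition of growth.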

Test systems include SW-620 colon; SK-MEL-5 melanoma; SK-MEL-28 melanoma; ACHN renal; OVCAR-5 ovarian; TK-10 renal; U251 CNS; SK-OV-3 ovarian; SR leukemia; BT-549 breast; LOX IMVI melanoma; HCT-15 colon; NCI/ADR-RES ovarian.
Test in all cases: inhibition of tumour cell growth, NCI panel, 48 h

For the molecule `COc1ccc2c(c1)CC[C@@H]1C2CC[C@]2(C)C(=O)N(C)C(=O)CC12` (stereo partly specified), the TGI in the assay with SW-620 colon, in the assay on SK-MEL-5 melanoma, in the assay on SK-MEL-28 melanoma, in the assay on ACHN renal, in the assay with OVCAR-5 ovarian and with TK-10 renal was above 100 µM in each case. For the same molecule, the TGI with U251 CNS, in the assay with SK-OV-3 ovarian, in the assay on SR leukemia and in the assay on BT-549 breast was above 100 µM in each case.

`C/C(O)=C/c1nc2sc(C)c(C)c2c(=O)s1`: the TGI in the assay on SW-620 colon, with LOX IMVI melanoma, in the assay with SK-MEL-5 melanoma, in the assay with SK-MEL-28 melanoma, with ACHN renal and in the assay with HCT-15 colon was above 100 µM throughout. Moreover, the TGI in the assay with OVCAR-5 ovarian, in the assay with TK-10 renal, in the assay with U251 CNS, with NCI/ADR-RES ovarian, in the assay with SK-OV-3 ovarian and in the assay with BT-549 breast was above 100 µM in each case.

`COc1ccc(/C=N/Nc2nc3ccccc3c(=O)n2-c2ccccc2)cc1`: the TGI with SW-620 colon, with LOX IMVI melanoma, in the assay with SK-MEL-5 melanoma, in the assay with SK-MEL-28 melanoma, in the assay with ACHN renal and in the assay with HCT-15 colon was above 100 µM each time. The TGI in the assay on OVCAR-5 ovarian, in the assay on TK-10 renal, in the assay on U251 CNS, in the assay with NCI/ADR-RES ovarian, in the assay on SK-OV-3 ovarian and in the assay with SR leukemia was above 100 µM each time.

With `CCOC(=O)CC(=O)Nc1c(C(=O)OCC)sc2nc(SC)nc(Nc3ccc(OC)c(OC)c3)c12`, the TGI in the assay with SW-620 colon, with LOX IMVI melanoma, with SK-MEL-5 melanoma, in the assay with SK-MEL-28 melanoma, in the assay on ACHN renal and in the assay with HCT-15 colon was above 100 µM in each case. In addition, the TGI in the assay with OVCAR-5 ovarian was above 100 µM; with TK-10 renal it was above 100 µM; in the assay on U251 CNS, 25.1 µM; with NCI/ADR-RES ovarian it was above 100 µM; with BT-549 breast, above 100 µM.

Consider `O=C(CN1c2ccccc2Sc2ccccc21)n1cnc2ccccc21`, for which the TGI in the assay on SW-620 colon, with LOX IMVI melanoma, with SK-MEL-5 melanoma, in the assay with SK-MEL-28 melanoma, with ACHN renal and in the assay on HCT-15 colon was above 100 µM each time. Further, the TGI in the assay with OVCAR-5 ovarian, with TK-10 renal, with U251 CNS, with NCI/ADR-RES ovarian, in the assay on SK-OV-3 ovarian and with BT-549 breast was above 100 µM in each case.

Regarding `COc1cccc2c(=O)c3c(O)c4cc(N(C)C)ccc4c(OC(C)=O)c3oc12`, the TGI in the assay on SW-620 colon stood at 22.4 µM; in the assay with LOX IMVI melanoma, 24.3 µM; in the assay on SK-MEL-5 melanoma it was 25.1 µM; in the assay with SK-MEL-28 melanoma it was 22.3 µM; in the assay on ACHN renal it was 32.8 µM; with HCT-15 colon, 25.3 µM. Further, the TGI in the assay with OVCAR-5 ovarian is above 100 µM; in the assay with TK-10 renal, 29.3 µM; in the assay with U251 CNS it was 30.2 µM; with NCI/ADR-RES ovarian it was 60.5 µM; in the assay with SK-OV-3 ovarian, above 100 µM; in the assay on BT-549 breast it was 21.9 µM.

Consider `CC1(C)O[C@@H]([C@@H](O)[C@H](O)C2SCCCS2)[C@@H](CO)O1`, for which the TGI in the assay with SW-620 colon, in the assay on LOX IMVI melanoma, in the assay on SK-MEL-5 melanoma, with SK-MEL-28 melanoma, in the assay with ACHN renal and with HCT-15 colon was above 100 µM in each case. Also, the TGI in the assay with OVCAR-5 ovarian, in the assay on TK-10 renal, in the assay on U251 CNS, with NCI/ADR-RES ovarian, in the assay with SK-OV-3 ovarian and in the assay on BT-549 breast was above 100 µM throughout.

As to `CC(C)(C)OC(=O)N1CCC[C@H]1CSC[C@@H]1CCCN1C(=O)OC(C)(C)C`, the TGI is 96.8 µM in the assay on SW-620 colon; 35.2 µM in the assay on LOX IMVI melanoma; 32.7 µM in the assay with SK-MEL-5 melanoma; 60 µM with SK-MEL-28 melanoma; 82.2 µM in the assay on ACHN renal; 92.4 µM in the assay with HCT-15 colon. Moreover, the TGI in the assay with OVCAR-5 ovarian is above 100 µM; with TK-10 renal, above 100 µM; with U251 CNS, 90.7 µM; in the assay on NCI/ADR-RES ovarian it was 48.9 µM; in the assay with SK-OV-3 ovarian it was above 100 µM; with BT-549 breast, 58.9 µM.

Take `N=C1SCCS1`: the TGI with SW-620 colon, in the assay with LOX IMVI melanoma, in the assay on SK-MEL-5 melanoma, in the assay with SK-MEL-28 melanoma, in the assay with ACHN renal and with HCT-15 colon was above 100 µM each time. The TGI in the assay with OVCAR-5 ovarian, in the assay on TK-10 renal, with U251 CNS and in the assay on SK-OV-3 ovarian was above 100 µM in each case.

For `COC1(CCO)CC=CCC1(CCO)OC` (stereo unspecified), the TGI in the assay on SW-620 colon, in the assay on LOX IMVI melanoma, in the assay on SK-MEL-5 melanoma, with SK-MEL-28 melanoma, in the assay on ACHN renal and with HCT-15 colon was above 100 µM throughout. Further, the TGI with OVCAR-5 ovarian, in the assay with TK-10 renal, with NCI/ADR-RES ovarian, with SK-OV-3 ovarian and in the assay on BT-549 breast was above 100 µM throughout.

With `CSC(=S)Nc1cc(C)ccn1`, the TGI with SW-620 colon is above 100 µM; with LOX IMVI melanoma, above 100 µM; with SK-MEL-5 melanoma it was 46.5 µM; with SK-MEL-28 melanoma it was above 100 µM; in the assay with ACHN renal, above 100 µM; in the assay with HCT-15 colon, above 100 µM. Further, the TGI with OVCAR-5 ovarian, in the assay on TK-10 renal, in the assay with U251 CNS, in the assay on NCI/ADR-RES ovarian, with SK-OV-3 ovarian and with SR leukemia was above 100 µM in each case.

With `Brc1ccc(C2(N3CCCCC3)CCCCC2)s1`, the TGI in the assay with SW-620 colon is above 100 µM; in the assay with LOX IMVI melanoma it was 29 µM; with SK-MEL-5 melanoma, 22.3 µM; in the assay on ACHN renal, above 100 µM; in the assay with OVCAR-5 ovarian, above 100 µM; in the assay on TK-10 renal, above 100 µM. Also, the TGI in the assay with U251 CNS is above 100 µM; in the assay on SK-OV-3 ovarian it was above 100 µM; in the assay on SR leukemia, 44.3 µM; with BT-549 breast it was above 100 µM.
